In US6924309B2 (Children, Youth and Women's Health Service Incorporated, priority 1999, dated 2005):
Where two headings read alike, the source gives them in different places.

Legend:
[1] = Thin film autoxidation of arachidonic acid with compounds 16-19 (HPLC)
Source text: Subsequently, the autoxidation of compounds 16-19 and their effects on the autoxidation of arachidonic acid were investigated. In these experiments, a thin film assay method was employed. For each reaction, arachidonic acid was mixed with one of the synthetic compounds 16, 17, 18 or 19 at 1:1 ratio with or without the radical initiator, azobisisobutyronitrile (AIBN). A reverse phase HPLC method was used to simultaneously measure the relative amounts of arachidonic acid and the synthetic compounds 16, 17, 18 or 19 recovered following 60 or 70 hours or 7 days of thin film autoxidation.

[2] = Petri-dish thin film autoxidation of arachidonic acid with thia fatty acids and sulfides (HPLC); settings: for Arachidonic acid (%) recovered following autoxidation: arachidonic acid alone
Description: A stock solution in dichioromethane (2 ml) containing arachidonic acid 1 (18 mg) and 3-[(3Z,6Z)-nona-3,6dienylthio]propionic acid 106 (18 mg) was prepared with lauric acid (18 mg) as an internal standard. Samples of the stock solution (100 μl) were added to glass Petri-dishes followed by ethanol (400 μl). After evaporation of the solvent, a well-distributed thin film was formed on each Petri-dish. The Petri-dishes were placed in a desiccator, which was then evacuated, filled with oxygen and stored in the darkness. Dishes were removed from the desiccator after 1, 2, 3, 5 and 7 days. The mixture on each dish was redissolved in diethyl ether and transferred to a 2 ml vial. After evaporation of the solvent, the residue was dissolved in the HPLC mobile phase (100 μl) and 10% of the solution was analysed by HPLC using a reverse phase column (octadecylsilane) (4.6 mm×250 mm, 3 μm) and a refractive index detector.
Autoxidation of arachidonic acid was conducted in the presence of compound 19 and lauric acid. Stock solutions of arachidonic acid, compound 19 and lauric acid in dichloromethane with equal concentrations were added to a 25 ml round-bottomed flask, and the solvent was evaporated to leave a thin film on the internal surface of the flask. The flask was then filled with oxygen and kept in the dark. The percentages of arachidonic acid and compound 19 remaining after 7 days were measured by HPLC. The same assay was carried out simultaneously with several flasks but the results were not reproducible. The variation was attributed to differences in oxygen concentration and the surface area of the thin films formed in the flasks. Therefore, in order to establish a reproducible assay for the analysis of the autoxidation of arachidonic acid, Petri-dishes with uniform size (80 mm in diameter) were used instead of flasks for thin film formation and the oxidation was carried out by placing the Petri-dishes in a dessicator filled with oxygen. To assess this method, thin firms of arachidonic acid with lauric acid as a standard were prepared on six Petri-dishes using identical treatment, and then subjected to oxidation in the same dessicator filled with oxygen. After 24 h, the percentage of arachidonic acid recovered following autoxidation in each Petri-dish was determined by HPLC. […] The advantage of using a Petri-dish over a flask is that the thin films on each Petri-dish are spread over the same area, and each Petri-dish is exposed to oxygen to the same extent.
Using the Petri-dish assay method, the effects of the thia PUFAs and sulfides 106 and 108-111, along with compounds 18, 19 and 3-[(Z,Z,Z)-(octadeca-9,12,15-trienylthio)] propionic acid 112 which were available in the laboratory, on the autoxidation of arachidonic acid, were examined. In addition, the stability of these compounds in the presence of arachidonic acid was also investigated. Arachidonic acid and lauric acid as a standard were mixed with each sulfur compound at different ratios and the mixtures were subjected to thin film autoxidation. The mixtures were analysed by HPLC after 1,2,3,5 and 7 days.

[3] = 1:1 ratio with arachidonic acid
[4] = compound at one-tenth that of arachidonic acid
[5] = ratio arachidonic acid:compound 1:1, 3 days
[6] = ratio arachidonic acid:compound 1:1, 7 days
[7] = ratio arachidonic acid:compound 10:1, 1 day
[8] = ratio arachidonic acid:compound 10:1, 2 days
[9] = ratio arachidonic acid:compound 10:1, 3 days
[10] = ratio arachidonic acid:compound 10:1, 5 days
[11] = ratio arachidonic acid:compound 10:1, 7 days
[12] = ratio arachidonic acid:compound 1:1, 1 day
[13] = ratio arachidonic acid:compound 1:1, 2 days
[14] = ratio arachidonic acid:compound 1:1, 5 days
[15] = ratio arachidonic acid:compound 2:1, 1 day
[16] = ratio arachidonic acid:compound 2:1, 2 days
[17] = ratio arachidonic acid:compound 2:1, 3 days
[18] = ratio arachidonic acid:compound 2:1, 5 days
[19] = ratio arachidonic acid:compound 2:1, 7 days

SMILES	Antioxidant effect on autoxidation of arachidonic acid (in words) [2, 3]	Antioxidant effect on autoxidation of arachidonic acid (in words) [2, 4]	Arachidonic acid (%) recovered following autoxidation in the presence of the compound [2, 5] [%]	Compound (%) recovered following autoxidation with arachidonic acid [2, 5] [%]	Arachidonic acid (%) recovered following autoxidation in the presence of the compound [2, 6] [%]	Compound (%) recovered following autoxidation with arachidonic acid [2, 6] [%]	Arachidonic acid (%) recovered following autoxidation in the presence of the compound [2, 7] [%]	Compound (%) recovered following autoxidation with arachidonic acid [2, 7] [%]	Arachidonic acid (%) recovered following autoxidation in the presence of the compound [2, 8] [%]	Compound (%) recovered following autoxidation with arachidonic acid [2, 8] [%]	Arachidonic acid (%) recovered following autoxidation in the presence of the compound [2, 9] [%]	Arachidonic acid (%) recovered following autoxidation in the presence of the compound [2, 10] [%]	Arachidonic acid (%) recovered following autoxidation in the presence of the compound [2, 11] [%]	Antioxidant effect on autoxidation of arachidonic acid (in words) [2]	Arachidonic acid (%) recovered following autoxidation in the presence of the compound [2, 12] [%]	Compound (%) recovered following autoxidation with arachidonic acid [2, 12] [%]	Arachidonic acid (%) recovered following autoxidation in the presence of the compound [2, 13] [%]	Compound (%) recovered following autoxidation with arachidonic acid [2, 13] [%]	Arachidonic acid (%) recovered following autoxidation in the presence of the compound [2, 14] [%]	Compound (%) recovered following autoxidation with arachidonic acid [2, 14] [%]	also measured
CC/C=C\C/C=C\C/C=C\CCCCCCCCOCC(=O)O [Compound 17, (Z,Z,Z)-(octadeca-9,12,15-trienyloxy) acetic acid]	–	–	–	–	–	–	–	–	–	–	–	–	–	–	–	–	–	–	–	–	Percentage of arachidonic acid recovered in the presence of the compound ([1]; ratio 1:1, 10% AIBN 60 h): 44%; Percentage of compound recovered (with arachidonic acid) ([1]; ratio 1:1, 10% AIBN 60 h): 49%; Percentage of arachidonic acid recovered in the presence of the compound ([1]; ratio 1:1, no additive 70 h): 92%; Percentage of compound recovered (with arachidonic acid) ([1]; ratio 1:1, no additive 70 h): 102%; Percentage of arachidonic acid recovered in the presence of the compound ([1]; ratio 1:1, no additive 7 day): 30%; Percentage of compound recovered (with arachidonic acid) ([1]; ratio 1:1, no additive 7 day): 41%; Autoxidation of arachidonic acid in the presence of the compound (in words) ([1]; ratio 1:1, with or without AIBN): substantial degree of autoxidation
CCCCC/C=C\C/C=C\C/C=C\C/C=C\CCCCSCCC [Compound 110, propyl(all-Z)-eicosa-5,8,11,14-tetraenylpropyl sulfide]	effectively inhibit	still effective antioxidiants	100	99	100	100	97	85	89	22	67	24	10	–	–	–	–	–	–	–	–
CCCCC/C=C\C/C=C\C/C=C\C/C=C\CCCC(=O)O [Arachidonic acid, arachidonic acid, reference compound]	–	–	–	–	–	–	–	–	–	–	–	–	–	–	–	–	–	–	–	–	Arachidonic acid (%) recovered following autoxidation ([2]; 1 day): 91%; Arachidonic acid (%) recovered following autoxidation ([2]; 2 days): 20%; Arachidonic acid (%) recovered following autoxidation ([2]; 3 days): 16%; Arachidonic acid (%) recovered following autoxidation ([2]; 5 days): 12%
CC/C=C\C/C=C\C/C=C\CCCCCCCCSCCC(=O)O [Compound 112, 3-[(Z,Z,Z)-(octadeca-9,12,15-trienylthio)]-propionic acid]	effective as an antioxidant	less effective than either compound 19 or 106	98	97	93	86	82	25	33	–	17	4	–	effective antioxidants	100	100	99	98	99	97	–
CC/C=C\C/C=C\CCSCCC(=O)O [Compound 106]	almost complete prevention of autoxidation	very slow over the first 3 days	99	98	101	98	101	94	101	84	99	79	16	effective antioxidants	99	98	98	96	100	97	Arachidonic acid (%) recovered following autoxidation in the presence of the compound [2, 15]: 98%; Compound (%) recovered following autoxidation with arachidonic acid [2, 15]: 97%; Arachidonic acid (%) recovered following autoxidation in the presence of the compound [2, 16]: 99%; Compound (%) recovered following autoxidation with arachidonic acid [2, 16]: 98%; Arachidonic acid (%) recovered following autoxidation in the presence of the compound [2, 17]: 98%; Compound (%) recovered following autoxidation with arachidonic acid [2, 17]: 97%; Arachidonic acid (%) recovered following autoxidation in the presence of the compound [2, 18]: 99%; Compound (%) recovered following autoxidation with arachidonic acid [2, 18]: 97%; Arachidonic acid (%) recovered following autoxidation in the presence of the compound [2, 19]: 99%; Compound (%) recovered following autoxidation with arachidonic acid [2, 19]: 100%; Compound (%) recovered following autoxidation with arachidonic acid [2, 9]: 59%
CCCCCCCCCCCCCCSCCC [Compound 111, propyltetradecyl sulfide]	effectively inhibit	still effective antioxidiants	98	92	97	90	99	81	99	63	97	68	17	–	100	101	98	91	98	92	Compound (%) recovered following autoxidation with arachidonic acid [2, 9]: 38%
